Measurements: patent US8637481B2, “Sensitizing agents for cancer therapy, methods of use and methods for the identification thereof” (University Health Network, priority 2009, dated 2014)

What was measured:
[1] = test system: FaDu cells; assay: Apoptotic fraction by flow cytometry post-IR; assay type: cell-based, human; conditions: deferoxamine 5 μM pre-treatment 24 h before IR 4 Gy, 72 h post-IR
Method: Flow cytometric analyses were performed on a FACSCalibur Flow Cytometer (BD Biosciences, San Jose, Calif.), equipped with FlowJo software (Tree Star, Ashland, Oreg.). Cell cycle distributions, caspase activation, and mitochondrial membrane potentials were measured as previously described. Intracellular ROS levels were quantified using the non-specific 5-(and 6-)chloromethyl-2′,7′-dichlorodihydrofluorescein diacetate (CM-H2DCFDA) dye, and the superoxide-selective dihydroethidium (DE) dye as instructed by the manufacturer (Invitrogen).
Transfected cells were immediately exposed to a continuous flow of humidified 0.2% O2 with 5% CO2 and balanced N2 (Praxair, Ontario, Canada) in an In Vivo2 400 Hypoxia Chamber (Ruskinn Technology, Pencoed, UK). An OxyLite 4000 oxygen-sensing probe (Oxford Optronix, Oxford, UK) was used to verify target O2 levels.

[2] = test system: FaDu cells; assay: Cell viability assay (MTS); assay type: cell-based, human; conditions: IR 4 Gy, 96 h post-IR, siRNA 48 h transfection, ALA 250-1000 μM 4 h
Text: The CeliTiter 96 AQueous One Solution Cell Proliferation Assay (3-(4,5-dimethylthiazol-2-yl)-5-(3-carboxymethoxyphenyl)-2-(4-sulfophenyl)-2H-tetrazolium, inner salt MTS (Promega, Madison, Wis.) was used to detect cell viability according to the manufacturer's specifications.

Molecule | siUROD-plus-IR-induced apoptosis [1] | cytotoxicity plus IR (cell viability, MTS) [2]
deferoxamine mesylate salt | significant suppression | 
Cl.NCC(=O)CCC(=O)O [ALA, δ-aminolevulinic acid hydrochloride] |  | negligible effects
